From ChEMBL document CHEMBL2074408, “Altered pharmacokinetics of vinblastine in Mdr1a P-glycoprotein-deficient Mice” (J Natl Cancer Inst, 1996)

Molecular target: ATP-dependent translocase ABCB1 (Mus musculus, UniProt P21447)
Assay: TP_TRANSPORTER: increase in brain concentration in mdr1a(-/-) mouse
Format: functional, organism-based
Conditions: in vivo

Sequence of ATP-dependent translocase ABCB1 (P21447 whole entry): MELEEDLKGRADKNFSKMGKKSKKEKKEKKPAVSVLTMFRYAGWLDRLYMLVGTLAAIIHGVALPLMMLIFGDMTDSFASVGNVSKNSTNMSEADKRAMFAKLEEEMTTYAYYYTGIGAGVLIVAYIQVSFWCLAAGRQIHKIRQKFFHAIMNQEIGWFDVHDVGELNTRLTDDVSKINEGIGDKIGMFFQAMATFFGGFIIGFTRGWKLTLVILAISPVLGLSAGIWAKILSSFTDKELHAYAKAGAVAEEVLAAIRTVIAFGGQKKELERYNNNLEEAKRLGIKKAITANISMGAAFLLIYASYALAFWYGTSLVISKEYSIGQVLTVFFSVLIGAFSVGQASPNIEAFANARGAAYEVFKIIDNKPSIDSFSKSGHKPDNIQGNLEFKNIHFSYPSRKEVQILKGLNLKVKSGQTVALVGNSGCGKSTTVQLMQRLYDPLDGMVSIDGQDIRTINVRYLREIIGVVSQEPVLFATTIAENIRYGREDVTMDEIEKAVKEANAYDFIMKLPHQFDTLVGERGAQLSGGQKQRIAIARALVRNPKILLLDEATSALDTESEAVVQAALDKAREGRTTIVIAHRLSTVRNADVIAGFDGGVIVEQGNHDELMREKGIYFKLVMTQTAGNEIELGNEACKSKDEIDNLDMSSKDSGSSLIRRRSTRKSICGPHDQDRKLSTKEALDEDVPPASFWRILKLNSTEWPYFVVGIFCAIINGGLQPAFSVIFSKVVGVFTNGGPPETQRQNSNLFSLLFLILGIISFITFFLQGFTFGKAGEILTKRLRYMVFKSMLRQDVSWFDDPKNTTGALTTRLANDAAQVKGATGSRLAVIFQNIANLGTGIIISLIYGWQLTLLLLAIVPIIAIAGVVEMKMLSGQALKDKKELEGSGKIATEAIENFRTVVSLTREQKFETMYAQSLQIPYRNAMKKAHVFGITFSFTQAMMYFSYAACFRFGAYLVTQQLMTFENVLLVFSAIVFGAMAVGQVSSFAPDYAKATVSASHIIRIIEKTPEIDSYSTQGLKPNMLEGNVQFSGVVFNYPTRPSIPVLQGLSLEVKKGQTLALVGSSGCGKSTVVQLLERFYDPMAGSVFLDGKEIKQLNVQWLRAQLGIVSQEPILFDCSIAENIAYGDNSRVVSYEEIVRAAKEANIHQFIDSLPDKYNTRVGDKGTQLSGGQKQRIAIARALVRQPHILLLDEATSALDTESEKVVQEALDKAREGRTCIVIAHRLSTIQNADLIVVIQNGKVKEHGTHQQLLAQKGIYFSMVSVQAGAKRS

Activity: substrate [+]
SMILES: CC[C@]1(O)C[C@H]2CN(CCc3c([nH]c4ccccc34)[C@@](C(=O)OC)(c3cc4c(cc3OC)N(C=O)[C@H]3[C@@](O)(C(=O)OC)[C@H](OC(C)=O)[C@]5(CC)C=CCN6CC[C@]43[C@@H]65)C2)C1 [VINCRISTINE]
